# Test results as given in patent publication US20100272680A1, “Piperidinyl Cyclic Amido Antiviral Agents” (priority 2009, published 2010).
# Columns and labels:
# HCV Genotype 1B Replicon = assay: Replicon assay, genotype 1b subgenomic replicon (ET cell line), luciferase readout; assay type: cell-based; settings: Hepatitis C virus, 48 h, Table 3; luciferase activity after 48 hours
# Description: (§1) Compounds were assayed for activity against HCV using the genotype 1a and 1b subgenomic replicon model systems. Stable cell lines bearing the genotype 1a and 1b replicons were used for screening of compounds. Both replicons are bicistonic and contain the firefly luciferase gene. The ET cell line is stably transfected with RNA transcripts harboring a I389luc-ubi-neo/NS3-3′/ET replicon with firefly luciferase-ubiquitin-neomycin phosphotransferase fusion protein and EMCV-IRES driven NS3-5B polyprotein containing the cell culture adaptive mutations (E1202G; T12801; K1846T) (Krieger at al, 2001 and unpublished). The genotype 1a replicon is a stable cell line licensed from Apath LLC, modified to contain the firefly luciferase gene. The cells were grown in DMEM, supplemented with 10% fetal calf serum, 2 mM Glutamine, Penicillin (100 IU/mL)/Streptomycin (100 μg/mL), 1× nonessential amino acids, and 250-500 μg/mL G418 (“Geneticin”). They were all available through Life Technologies (Bethesda, Md.). The cells were plated at 0.5×10^4 cells/well in 384 well plates containing compounds. The final concentration of compounds ranged between 0.03 μM to 50 μm and the final DMSO concentration of 0.5-1%.
# (§2) Luciferase activity was measured 48 hours later by adding a Steady glo (Promega, Madison, Wis.). Percent inhibition of replication data was plotted relative to no compound control. Under the same condition, cytotoxicity of the compounds was determined using cell titer glo (Promega, Madison, Wis). IC50s were determined from a 10 point dose response curve using 3-4-fold serial dilution for each compound, which spans a concentration range >1000 fold. BioAssay determines the level of inhibition for each compound by normalizing cross-talk corrected plate values against the negative […] controls to determine Percent Inhibition:
# (§3) These normalized values are exported to EC50 where they are plotted against the molar compound concentrations using the standard four parameter logistic equation: […]
# (§4) Some EC50 measurements were repeated a second time and for both 1A and 1B genotypes after those reported in Table 2 for compounds 101-108 and the repeated data was reported in Table 3.
# HCV Genotype 1A Replicon = assay: Replicon assay, genotype 1a subgenomic replicon, luciferase readout; assay type: cell-based; settings: Hepatitis C virus, 48 h, Table 3; luciferase activity after 48 hours
# Description: as §1, §2, §3, §4
Structure (SMILES),EC50 (HCV Genotype 1B Replicon) [nM],EC50 (HCV Genotype 1A Replicon) [nM]
"CC(C)Cn1cc(-c2cc(C(F)(F)F)c3nc(C(=O)N4CCC(N5CCOC5=O)CC4)c(Cl)n3c2)cn1 [Compound 126, 3-(1-{[3-chloro-6-[1-(2-methylpropyl)-1H-pyrazol-4-yl]-8-(trifluoromethyl)imidazo[1,2-a]pyridin-2-yl]carbonyl}-4-piperidinyl)-1,3-oxazolidin-2-one]",≥ 50100,13600
"CCCc1cc(C(F)(F)F)c2nc(C(=O)N3CCC(N4CCOC4=O)CC3)c(Cl)n2c1 [Compound 129, 3-(1-{[3-chloro-6-propyl-8-(trifluoromethyl)imidazo[1,2-a]pyridin-2-yl]carbonyl}-4-piperidinyl)-1,3-oxazolidin-2-one]",120,20
"CC1(C)CN(C(=O)c2nc3c(C(F)(F)F)cc(-c4ccoc4)cn3c2Cl)CCC1N1CCOC1=O (stereo not drawn) [Compound 204, 3-(1-{[3-chloro-6-(3-furanyl)-8-(trifluoromethyl)imidazo[1,2-a]pyridin-2-yl]carbonyl}-3,3-dimethyl-4-piperidinyl)-1,3-oxazolidin-2-one]",300,40
"CC(C)c1c(C(=O)N2CCC(N3CCOC3=O)CC2)nc2c(C(F)(F)F)cc(-c3ccoc3)cn12 [Compound 165, 3-(1-{[6-(3-furanyl)-3-(1-methylethyl)-8-(trifluoromethyl)imidazo[1,2-a]pyridin-2-yl]carbonyl}-4-piperidinyl)-1,3-oxazolidin-2-one]",≥ 5010,≥ 5010
"C=Cc1cc(C(F)(F)F)c2nc(C(=O)N3CCC(N4CCOC4=O)CC3)c(Cl)n2c1 [Compound 153, 3-(1-{[3-chloro-6-ethenyl-8-(trifluoromethyl)imidazo[1,2-a]pyridin-2-yl]carbonyl}-4-piperidinyl)-1,3-oxazolidin-2-one]",70,80
"O=C(c1nc2c(C(F)(F)F)cc(OC(F)F)cn2c1Cl)N1CCC(N2CCOC2=O)CC1 [Compound 144, 3-(1-{[3-chloro-6-[(difluoromethyl)oxy]-8-(trifluoromethyl)imidazo[1,2-a]pyridin-2-yl]carbonyl}-4-piperidinyl)-1,3-oxazolidin-2-one]",50,20
"O=C(c1nc2c(C(F)(F)F)cc(-c3cc[nH]c3)cn2c1Cl)N1CCC(N2CCOC2=O)CC1 [Compound 147, 3-(1-{[3-chloro-6-(1H-pyrrol-3-yl)-8-(trifluoromethyl)imidazo[1,2-a]pyridin-2-yl]carbonyl}-4-piperidinyl)-1,3-oxazolidin-2-one]",20,20
O=C(c1nc2c(C(F)(F)F)cc(-c3cccc(F)c3)cn2c1Cl)N1CCC(N2CCOC2=O)CC1 [Compound 114],310,30
"CCC(C)c1cc(C(F)(F)F)c2nc(C(=O)N3CCC(N4CCOC4=O)CC3)c(Cl)n2c1 (stereo not drawn) [Compound 141, 3-(1-{[3-chloro-6-(1-methylpropyl)-8-(trifluoromethyl)imidazo[1,2-a]pyridin-2-yl]carbonyl}-4-piperidinyl)-1,3-oxazolidin-2-one]",550,160
"O=C1CN(C(=O)c2nc3c(C(F)(F)F)cc(C4CC4)cn3c2Cl)CC[C@@H]1N1CCOC1=O (stereo in doubt) [Compound 232, 1-{[3-chloro-6-cyclopropyl-8-(trifluoromethyl)imidazo[1,2-a]pyridin-2-yl]carbonyl}-4-(2-oxo-1,3-oxazolidin-3-yl)-3-piperidinone]",80,60
"O=C(c1nc2c(C(F)(F)F)cc(C3CC3)cn2c1Cl)N1CC[C@H](N2CCOC2=O)[C@H](O)C1 (single isomer, unassigned; enantiomer 1) [Compound 234, 3-((cis)-1-{[3-chloro-6-cyclopropyl-8-(trifluoromethyl)imidazo[1,2-a]pyridin-2-yl]carbonyl}-3-hydroxy-4-piperidinyl)-1,3-oxazolidin-2-one (Enantiomer 1)]",50,–
